Here are results for 15 molecules from ChEMBL document CHEMBL1782011, “Facile synthesis, vasorelaxant properties and molecular modeling studies of 2-amino-8a-methoxy-4H-pyrano[3,2-c]pyridine-3-carbonitriles” (Eur J Med Chem, 2011).

Where a name gives a salt, the structure may show the parent alone.

The experiment is filed under the species Rattus norvegicus. Nature of the experiment: Vasodilatory activity in Wistar rat thoracic aorta rings assessed as inhibition of norepinephrine hydrochloride-induced contraction. Format: functional.
Turning to `CCN1CC[C@@]2(OC)OC(N)=C(C#N)[C@@H](c3ccccc3)[C@@H]2C1`, the IC50 came out at 680 µM.
On to `CO[C@@]12CCN(C)C[C@H]1[C@H](c1ccc(Cl)cc1)C(C#N)=C(N)O2`, for which the half-inhibitory concentration (IC50) was determined as 370 µM.
As to `CCN1CC[C@@]2(OC)OC(N)=C(C#N)[C@@H](c3ccc(Cl)cc3)[C@@H]2C1`, the IC50 worked out at 400 µM.
As to `CO[C@@]12CCN(C)C[C@H]1[C@H](c1ccc(F)cc1)C(C#N)=C(N)O2`, the IC50 worked out at 520 µM.
With `CO[C@@]12CCN(C)C[C@H]1[C@H](c1ccc(C)cc1)C(C#N)=C(N)O2` the figure was 600 µM; with `COc1ccc([C@@H]2C(C#N)=C(N)O[C@]3(OC)CCN(C)C[C@@H]23)cc1`, 300 µM; with `CCN1CC[C@@]2(OC)OC(N)=C(C#N)[C@@H](c3ccc(OC)cc3)[C@@H]2C1`, 680 µM.
`CO[C@@]12CCN(C)C[C@H]1[C@H](c1cccs1)C(C#N)=C(N)O2`: the IC50 is 680 µM.
Consider `CCN1CC[C@@]2(OC)OC(N)=C(C#N)[C@@H](c3cccs3)[C@@H]2C1`, for which the IC50 came to 490 µM.
The result for `CO[C@@]12CCN(C)C[C@H]1[C@H](c1ccc(N3CCCCC3)cc1)C(C#N)=C(N)O2` reads 450 µM.
With `CCN1CC[C@@]2(OC)OC(N)=C(C#N)[C@@H](c3ccc(N4CCCCC4)cc3)[C@@H]2C1`, the IC50 came out at 480 µM.
Take `CO[C@@]12CCN(C)C[C@H]1[C@H](c1ccc(N3CCOCC3)cc1)C(C#N)=C(N)O2`: the concentration for half-maximal inhibition (IC50) was 740 µM.
In the case of `CCN1CC[C@@]2(OC)OC(N)=C(C#N)[C@@H](c3ccc(N4CCOCC4)cc3)[C@@H]2C1`, the IC50 was found to be 640 µM.
As for `CO[C@@]12CCN(C)C[C@H]1[C@H](c1ccccc1)C(C#N)=C(N)O2`, the IC50 was 720 µM.
Consider `COc1cc2nc(N3CCN(C(=O)c4ccco4)CC3)nc(N)c2cc1OC` [PRAZOSIN HYDROCHLORIDE], for which the half-maximal inhibitory concentration (IC50) came out at 490 µM.

Usually IC50 stands for the concentration that inhibits the measured activity by half.
